# Biological target: T1, 1D4-tagged TRPV2 QM (Rattus norvegicus, UniProt Q9WUD2, F472S/L507M/L510T/Q530E)
# T1 construct: made in house; host or cells: S. cerevisiae BJ5457, isolated membranes
# T1 sequence (Q9WUD2 1-761 F472S/L507M/L510T/Q530E): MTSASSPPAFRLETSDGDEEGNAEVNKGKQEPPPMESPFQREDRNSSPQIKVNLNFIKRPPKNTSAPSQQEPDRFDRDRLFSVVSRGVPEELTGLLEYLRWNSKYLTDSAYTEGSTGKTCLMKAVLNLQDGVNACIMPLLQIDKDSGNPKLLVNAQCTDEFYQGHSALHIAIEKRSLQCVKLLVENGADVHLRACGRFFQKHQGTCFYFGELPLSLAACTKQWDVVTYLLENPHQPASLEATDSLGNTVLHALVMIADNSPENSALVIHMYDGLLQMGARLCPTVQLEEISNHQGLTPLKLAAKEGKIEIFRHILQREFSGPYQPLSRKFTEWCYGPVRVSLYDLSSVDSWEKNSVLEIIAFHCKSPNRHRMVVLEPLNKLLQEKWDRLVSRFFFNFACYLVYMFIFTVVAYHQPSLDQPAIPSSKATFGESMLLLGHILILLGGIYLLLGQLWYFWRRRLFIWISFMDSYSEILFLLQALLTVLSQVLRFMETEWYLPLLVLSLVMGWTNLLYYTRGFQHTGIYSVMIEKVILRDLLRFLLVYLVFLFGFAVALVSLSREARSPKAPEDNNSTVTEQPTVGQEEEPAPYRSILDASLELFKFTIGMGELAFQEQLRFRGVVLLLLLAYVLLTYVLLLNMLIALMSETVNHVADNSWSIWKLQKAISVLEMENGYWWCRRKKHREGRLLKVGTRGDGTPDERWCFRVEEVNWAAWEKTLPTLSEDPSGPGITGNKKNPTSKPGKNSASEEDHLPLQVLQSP
# Test: 3H-RTx binding to yeast membranes containing 1D4-tagged TRPV2 QM
# Text: To examine the strength of RTx binding to the TRPV2 channel, we undertook binding assays after expressing 1D4-tagged TRPV2 and TRPV2 QM in S. cerevisiae and isolating yeast membranes, similar to the experiments described above with TRPV1 (Figure 2). […] To examine the relative importance of the four residues for mediating RTx sensitivity in the TRPV2 QM, we constructed triple mutants and evaluated their sensitivity to RTx electrophysiologically.
# The full-length TRPV1 and TRPV2 channels with 1D4 affinity tags ([…]) on their C-termini were cloned into the YEpHIS vector and expressed in the BJ5457 strain of S. cerevisiae using the strong constitutively active PMA1 promoter, as previously described ([Moiseenkova-Bell et al., 2008]). After 48 hr of expression at 30°C in YPD media, cells were harvested by centrifugation and re-suspended in PBS buffer, supplemented with complete protease inhibitor cocktail (Roche, Indianapolis, IN) and 4-amidinophenylmethanesulfonyl fluoride hydrochloride (APMSF) (Sigma-Aldrich, St. Louis, MO). Cells were broken by passing through an Avestin homogenizer at the pressure of 35 kpsi, cell lysate was cleared by centrifugation at 8,000 g for 15 min and membranes were isolated by ultracentrifugation at 190,000 g for 1 hr. […]
# S. cerevisiae cells overexpressing TRPV1 constructs to be used in ligand binding assays on intact cells (Figure 1E,F) were grown as for small scale expression trials. 24 hr after protein induction cells were spun down at 4000g, the supernatant was removed and the pellet resuspended in 1x PBS, normalizing OD600 to 75 for each sample, and aliquoted for storage at -80°C. ^3H-RTx binding assays on cells were performed at 37°C as previously described ([Feng et al., 2015]), but where non-specific binding of RTx was measured using cells expressing GFP alone. […] Data for binding of RTx to membranes was corrected for non-specific binding, determined using either excess non-radioactive ligand or heat inactivation of the protein, as previously described ([Feng et al., 2015]). […]
smiles,measurement,setting,value
"C=C(C)[C@]12C[C@@H](C)[C@@]34O[C@](Cc5ccccc5)(O[C@@H]1[C@@H]3C=C(COC(=O)Cc1ccc(O)c(OC)c1)C[C@]1(O)C(=O)C(C)=C[C@@H]41)O2 [RTx, resiniferatoxin]",affinity of RTx for TRPV2 QM lower compared to TRPV1,,about 30 fold
same,Hill slope (nH),37°C,1.7
same,Kd,"37°C, read-out: Kd of 3H-RTx binding (Hill fit)",0.018 µM

# From publication PMC4907692, “Engineering vanilloid-sensitivity into the rat TRPV2 channel” (eLife, 2016)
